Reference: US9682141B2, “Combination of kinase inhibitors and uses thereof” (INTELLIKINE LLC, priority 2011, dated 2017)

How the values were obtained:
Assay type in all cases: biochemical
PI3K α = PI3K α (Homo sapiens (Human), UniProt P42336); experiment: PI 3-Kinase (human) HTRF assay, p110α/p85α
Method: (§1) An exemplary system is PI 3-Kinase (human) HTRF™ Assay from Upstate. […] Briefly, the assay is a time resolved FRET assay that indirectly measures PIP3 product formed by the activity of a PI3-K. The kinase reaction is performed in a microtitre plate (e.g., a 384 well microtitre plate). The total reaction volume is approximately 20 ul per well. In the first step, each well receives 2 ul of test compound in 20% dimethylsulphoxide resulting in a 2% DMSO final concentration. Next, approximately 14.5 ul of a kinase/PIP2 mixture (diluted in 1× reaction buffer) is added per well for a final concentration of 0.25-0.3 ug/ml kinase and 10 μM PIP2. The plate is sealed and incubated for 15 minutes at room temperature. To start the reaction, 3.5 ul of ATP (diluted in 1× reaction buffer) is added per well for a final concentration of 10 μM ATP. The plate is sealed and incubated for 1 hour at room temperature. The reaction is stopped by adding 5 ul of Stop Solution per well and then 5 ul of Detection Mix is added per well. The plate is sealed, incubated for 1 hour at room temperature, and then read on an appropriate plate reader. Data is analyzed and IC50s are generated using GraphPad Prism 5. For PI3K α, β, δ, and γ, the nM concentration of inhibitor to reach IC50 is provided.

[1] = PI 3-Kinase (human) HTRF assay, p110δ/p85α; details: read-out: PI3K γ IC50
Method: as §1

PI3K γ = PI3K γ (Homo sapiens (Human), UniProt P48736); experiment: PI 3-Kinase (human) HTRF assay, p110γ; details: read-out: PI3K δ IC50
PI3K γ, sequence (P48736 whole entry, looked up): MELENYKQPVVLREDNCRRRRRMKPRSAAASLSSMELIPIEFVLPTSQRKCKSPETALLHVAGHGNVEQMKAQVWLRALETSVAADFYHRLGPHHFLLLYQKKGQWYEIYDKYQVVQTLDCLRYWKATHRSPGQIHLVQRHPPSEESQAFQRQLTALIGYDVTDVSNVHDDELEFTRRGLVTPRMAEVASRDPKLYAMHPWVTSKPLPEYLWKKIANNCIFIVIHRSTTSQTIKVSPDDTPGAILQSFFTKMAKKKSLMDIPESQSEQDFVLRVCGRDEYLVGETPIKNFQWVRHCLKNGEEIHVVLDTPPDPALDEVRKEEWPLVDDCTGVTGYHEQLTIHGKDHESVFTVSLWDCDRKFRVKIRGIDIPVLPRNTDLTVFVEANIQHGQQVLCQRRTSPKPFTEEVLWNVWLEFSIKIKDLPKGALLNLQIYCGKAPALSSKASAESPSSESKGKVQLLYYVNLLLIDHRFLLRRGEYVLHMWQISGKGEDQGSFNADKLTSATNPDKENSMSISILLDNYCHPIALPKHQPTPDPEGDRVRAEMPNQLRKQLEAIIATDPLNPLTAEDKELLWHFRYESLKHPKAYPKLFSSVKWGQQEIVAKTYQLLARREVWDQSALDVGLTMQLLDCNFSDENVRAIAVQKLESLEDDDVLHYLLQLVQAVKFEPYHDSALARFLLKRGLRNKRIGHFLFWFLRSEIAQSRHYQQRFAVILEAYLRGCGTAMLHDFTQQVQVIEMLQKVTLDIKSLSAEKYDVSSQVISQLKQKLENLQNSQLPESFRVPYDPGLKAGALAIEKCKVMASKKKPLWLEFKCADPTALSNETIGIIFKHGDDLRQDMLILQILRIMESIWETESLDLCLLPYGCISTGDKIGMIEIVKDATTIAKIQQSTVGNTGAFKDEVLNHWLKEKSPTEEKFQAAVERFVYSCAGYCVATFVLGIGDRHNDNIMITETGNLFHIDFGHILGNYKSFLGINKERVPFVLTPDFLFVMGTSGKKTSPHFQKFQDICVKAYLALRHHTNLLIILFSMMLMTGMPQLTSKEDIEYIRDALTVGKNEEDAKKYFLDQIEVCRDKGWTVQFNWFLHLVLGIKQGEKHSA

PI3K β = PI3K β (Homo sapiens (Human), UniProt P42338); experiment: PI 3-Kinase (human) HTRF assay, p110β/p85α
PI3K β, sequence (P42338 whole entry): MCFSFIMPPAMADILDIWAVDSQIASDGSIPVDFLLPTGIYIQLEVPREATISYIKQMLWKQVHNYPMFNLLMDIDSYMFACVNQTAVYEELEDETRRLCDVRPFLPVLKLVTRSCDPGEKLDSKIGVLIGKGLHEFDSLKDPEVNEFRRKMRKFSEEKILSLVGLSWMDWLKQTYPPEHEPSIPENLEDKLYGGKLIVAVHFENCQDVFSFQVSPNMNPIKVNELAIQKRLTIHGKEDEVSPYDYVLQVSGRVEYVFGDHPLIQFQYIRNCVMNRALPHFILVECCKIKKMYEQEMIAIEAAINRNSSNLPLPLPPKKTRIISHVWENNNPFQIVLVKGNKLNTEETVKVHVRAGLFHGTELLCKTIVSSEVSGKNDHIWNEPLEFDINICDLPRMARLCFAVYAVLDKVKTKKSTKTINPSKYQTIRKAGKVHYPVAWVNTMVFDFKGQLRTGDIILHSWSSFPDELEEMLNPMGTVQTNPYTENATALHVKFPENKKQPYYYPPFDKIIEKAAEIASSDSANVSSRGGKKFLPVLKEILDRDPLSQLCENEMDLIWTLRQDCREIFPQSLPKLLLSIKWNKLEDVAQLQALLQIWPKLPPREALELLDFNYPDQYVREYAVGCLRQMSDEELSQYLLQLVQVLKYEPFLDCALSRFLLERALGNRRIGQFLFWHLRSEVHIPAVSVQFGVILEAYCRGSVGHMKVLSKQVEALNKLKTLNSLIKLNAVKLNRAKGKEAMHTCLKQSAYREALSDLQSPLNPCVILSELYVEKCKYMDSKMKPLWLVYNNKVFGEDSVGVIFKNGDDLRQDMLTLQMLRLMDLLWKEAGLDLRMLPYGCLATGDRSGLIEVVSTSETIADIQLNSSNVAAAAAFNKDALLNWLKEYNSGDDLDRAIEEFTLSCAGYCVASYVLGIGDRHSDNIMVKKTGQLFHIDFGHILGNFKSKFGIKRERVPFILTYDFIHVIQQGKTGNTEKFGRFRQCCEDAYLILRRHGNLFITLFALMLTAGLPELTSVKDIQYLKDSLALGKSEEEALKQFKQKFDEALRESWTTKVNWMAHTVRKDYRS
PI3K β, sequence (P27986 whole entry partner): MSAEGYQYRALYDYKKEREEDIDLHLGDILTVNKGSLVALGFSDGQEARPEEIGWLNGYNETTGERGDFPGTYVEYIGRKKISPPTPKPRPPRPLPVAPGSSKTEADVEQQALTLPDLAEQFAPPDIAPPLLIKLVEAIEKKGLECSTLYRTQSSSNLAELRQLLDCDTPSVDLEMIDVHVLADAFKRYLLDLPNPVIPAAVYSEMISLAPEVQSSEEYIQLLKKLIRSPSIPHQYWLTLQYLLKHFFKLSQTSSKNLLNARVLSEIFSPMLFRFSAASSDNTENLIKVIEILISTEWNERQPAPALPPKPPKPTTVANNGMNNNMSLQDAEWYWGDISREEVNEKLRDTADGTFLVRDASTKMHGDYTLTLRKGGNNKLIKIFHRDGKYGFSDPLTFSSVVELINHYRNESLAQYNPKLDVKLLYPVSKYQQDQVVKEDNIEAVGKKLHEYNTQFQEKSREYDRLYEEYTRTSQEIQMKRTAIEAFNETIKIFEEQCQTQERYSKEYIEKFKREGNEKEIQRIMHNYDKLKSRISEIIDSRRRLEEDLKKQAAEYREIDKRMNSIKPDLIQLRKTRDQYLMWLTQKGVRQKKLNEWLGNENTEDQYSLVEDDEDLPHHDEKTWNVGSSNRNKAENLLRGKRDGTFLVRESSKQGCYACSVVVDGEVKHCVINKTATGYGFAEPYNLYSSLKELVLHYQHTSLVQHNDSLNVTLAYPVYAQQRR

mTORC = mTORC (Homo sapiens (Human), UniProt P42345); experiment: mTOR inhibition assay (radiometric or LanthaScreen TR-FRET)
Method: The compounds described herein can be tested against recombinant mTOR (Invitrogen) in an assay containing 50 mM HEPES, pH 7.5, 1 mM EGTA, 10 mM MgCl2, 2.5 mM, 0.01% Tween, 10 μM ATP (2.5 μCi of μ-32P-ATP), and 3 μg/mL BSA. Rat recombinant PHAS-1/4EBP1 (Calbiochem; 2 mg/mL) is used as a substrate. Reactions are terminated by spotting onto nitrocellulose, which is washed with 1M NaCl/1% phosphoric acid (approximately 6 times, 5-10 minutes each). Sheets are dried and the transferred radioactivity quantitated by phosphorimaging.
For instance, one can use Invitrogen's LanthaScreen™ Kinase assay to test the inhibitors of mTOR disclosed herein. This assay is a time resolved FRET platform that measures the phosphorylation of GFP labeled 4EBP1 by mTOR kinase. The kinase reaction is performed in a white 384 well microtitre plate. The total reaction volume is 20 ul per well and the reaction buffer composition is 50 mM HEPES pH7.5, 0.01% Polysorbate 20, 1 mM EGTA, 10 mM MnCl2, and 2 mM DTT. In the first step, each well receives 2 ul of test compound in 20% dimethylsulphoxide resulting in a 2% DMSO final concentration. Next, 8 ul of mTOR diluted in reaction buffer is added per well for a 60 ng/ml final concentration. To start the reaction, 10 ul of an ATP/GFP-4EBP1 mixture (diluted in reaction buffer) is added per well for a final concentration of 10 μM ATP and 0.5 μM GFP-4EBP1. The plate is sealed and incubated for 1 hour at room temperature. […] The plate is sealed, incubated for 1 hour at room temperature, and then read on a plate reader set up for LanthaScreen™ TR-FRET. Data is analyzed and IC50s are generated using GraphPad Prism 5.

PI3K α, sequence (P42336 whole entry): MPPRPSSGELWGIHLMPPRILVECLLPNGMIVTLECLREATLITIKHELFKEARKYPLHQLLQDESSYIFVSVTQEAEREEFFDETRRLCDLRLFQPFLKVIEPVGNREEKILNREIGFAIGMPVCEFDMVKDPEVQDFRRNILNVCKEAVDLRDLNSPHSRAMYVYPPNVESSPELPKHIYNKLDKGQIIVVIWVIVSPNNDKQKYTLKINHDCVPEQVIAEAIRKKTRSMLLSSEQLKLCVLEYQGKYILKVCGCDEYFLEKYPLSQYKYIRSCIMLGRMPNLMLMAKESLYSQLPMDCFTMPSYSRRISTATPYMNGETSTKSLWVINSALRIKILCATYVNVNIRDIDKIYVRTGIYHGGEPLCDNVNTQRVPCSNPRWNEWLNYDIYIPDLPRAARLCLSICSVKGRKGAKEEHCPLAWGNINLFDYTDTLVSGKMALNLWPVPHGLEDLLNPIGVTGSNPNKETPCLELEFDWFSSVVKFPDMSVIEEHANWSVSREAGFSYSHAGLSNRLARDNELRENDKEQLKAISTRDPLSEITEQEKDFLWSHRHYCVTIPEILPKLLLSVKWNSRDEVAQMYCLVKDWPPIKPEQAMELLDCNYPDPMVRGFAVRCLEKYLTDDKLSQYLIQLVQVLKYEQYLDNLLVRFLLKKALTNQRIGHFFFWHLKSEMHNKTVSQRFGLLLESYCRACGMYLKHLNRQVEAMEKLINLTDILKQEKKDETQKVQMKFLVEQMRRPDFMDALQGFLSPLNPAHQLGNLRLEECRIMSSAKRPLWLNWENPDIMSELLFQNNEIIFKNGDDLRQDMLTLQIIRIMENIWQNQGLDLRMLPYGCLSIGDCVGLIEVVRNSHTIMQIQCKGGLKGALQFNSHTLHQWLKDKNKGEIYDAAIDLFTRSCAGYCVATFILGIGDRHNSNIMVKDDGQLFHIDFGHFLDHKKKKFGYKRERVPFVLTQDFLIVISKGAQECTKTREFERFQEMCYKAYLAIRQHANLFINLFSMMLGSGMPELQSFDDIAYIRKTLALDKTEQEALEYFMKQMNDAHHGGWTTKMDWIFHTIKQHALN
PI3K α, sequence (P27986 whole entry partner): as the sequence (P27986 whole entry partner) above

Compound | IC50 (PI3K α) [µM] | IC50 [1] [µM] | IC50 (PI3K γ) [µM] | IC50 (PI3K β) [µM] | IC50 (mTORC) [µM]
Nc1nc2cc(-c3ccc4ncc(N5CCC(n6ccnc6)CC5)nc4c3)ccc2o1 | < 0.1 | < 1 | < 1 | < 1 | < 10
CN(C)[C@@H]1CCN(c2cnc3ccc(-c4ccc5oc(N)nc5c4)cc3n2)C1 | < 0.1 | < 10 | < 10 | < 0.1 | < 1
Nc1nc2cc(-c3ccc4ncc(N5CC(N6CCN(C7CC7)CC6)C5)nc4c3)ccc2o1 | < 0.1 | < 10 | < 10 | < 10 | < 10
Nc1ncc(-c2ccc3oc(N)nc3c2)cn1 | > 10 | > 10 | < 10 | > 10 | > 10
COc1ncc(-c2ccc3ncc(C(=O)N4CCOCC4)n3c2)cc1NS(=O)(=O)c1ccc(F)cc1F | < 0.1 | < 0.1 | < 0.1 | < 0.1 | < 1
Nc1nc2cc(-c3ccc4ncc(N5CC(N6CCOCC6)C5)nc4c3)ccc2o1 | < 0.1 | > 10 | < 10 | > 10 | < 1
Nc1nc2cc(-c3ccc4ncc(N5CC(N6CC[C@@H](O)C6)C5)nc4c3)ccc2o1 | < 0.1 | < 10 | < 10 | < 10 | < 1
CN1CCN(C2CN(c3cnc4ccc(-c5ccc6oc(N)nc6c5)cc4n3)C2)CC1 | < 0.1 | < 10 | < 10 | < 10 | < 10
Nc1nc2cc(-c3ccc4ncc(N5CC(N6CCOCC6)C5)nc4c3)c(F)cc2o1 | < 0.1 | < 10 | < 10 | < 10 | > 10
Nc1nc2cc(-c3ccc4ncc(N5CC(N6CCN(CCO)CC6)C5)nc4c3)ccc2o1 | < 0.1 | < 1 | < 10 | < 10 | > 10
Nc1nc2cc(-c3ccc4ncc(N5CC(n6cccn6)C5)nc4c3)ccc2o1 | < 0.1 | > 10 | < 10 | < 10 | < 1
CS(=O)(=O)N1CCN(C2CN(c3cnc4ccc(-c5ccc6oc(N)nc6c5)cc4n3)C2)CC1 | < 0.1 | < 10 | < 10 | < 10 | > 10
O=C(c1cnc2ccc(-c3cnc(Cl)c(NS(=O)(=O)c4ccc(F)cc4F)c3)cn12)N1CCOCC1 | < 0.1 | < 0.1 | < 0.1 | < 0.1 | < 1
Cc1nccn1C1CN(c2cnc3ccc(-c4ccc5oc(N)nc5c4)cc3n2)C1 | < 0.1 | < 10 | < 10 | < 10 | < 10
CS(=O)(=O)N1CCN(C2CCN(c3cnc4ccc(-c5ccc6oc(N)nc6c5)cc4n3)CC2)CC1 | < 0.1 | < 10 | < 1 | < 10 | < 10
Nc1nc2cc(-c3ccc4ncc(N5CC(N6CC[C@H](O)C6)C5)nc4c3)ccc2o1 | < 0.1 | < 10 | < 1 | < 1 | > 10
Nc1nc2cc(-c3nc(N4CCOCC4)c4cnn(C5CCNCC5)c4n3)ccc2o1 | < 1 | < 10 | < 1 | < 0.1 | < 1
C[C@@H]1CN(C(=O)C2CN(c3cnc4ccc(-c5ccc6oc(N)nc6c5)cc4n3)C2)CCN1 | < 0.1 | < 1 | < 1 | < 10 | < 10

Compound | IC50 (PI3K α) [µM] | IC50 [1] [µM] | IC50 (PI3K γ) [µM] | IC50 (PI3K β) [µM] | IC50 (mTORC) [µM]
CS(=O)(=O)Nc1cc(-c2ccc3ncc(C(=O)N4CCOCC4)n3c2)cnc1Cl | < 0.1 | < 0.1 | < 0.1 | < 0.1 | < 0.1
CN1CCN([C@@H]2CCN(c3cnc4ccc(-c5ccc6oc(N)nc6c5)cc4n3)C2)CC1 | < 0.1 | < 10 | > 10 | < 1 | < 10
C[C@H]1CN(C2CN(c3cnc4ccc(-c5ccc6oc(N)nc6c5)cc4n3)C2)CCN1 | < 0.1 | < 10 | > 10 | < 10 | > 10
Nc1nc2cc(-c3ccc4ncc(N5CCNC(C(F)(F)F)C5)nc4c3)ccc2o1 (stereo not drawn) | < 0.1 | < 10 | < 1 | < 1 | < 1
Nc1nc2cc(-c3ccc4ncc(N5CCN(C(=O)[C@@H](N)CO)CC5)nc4c3)ccc2o1 | < 0.1 | < 10 | < 10 | < 1 | < 10
CC1(C)CN(C2CN(c3cnc4ccc(-c5ccc6oc(N)nc6c5)cc4n3)C2)CCN1 | < 0.1 | < 1 | < 1 | < 1 | < 0.1
CCN1CCN(C2CN(c3cnc4ccc(-c5ccc6oc(N)nc6c5)cc4n3)C2)CC1 | < 0.1 | < 1 | < 10 | < 1 | > 10
CN1CCN(C2CN(C(=O)c3cnc4ccc(-c5ccc6oc(N)nc6c5)cn34)C2)CC1 | < 0.1 | < 10 | > 10 | > 10 | < 10
Nc1nc2cc(-c3ccc4nc(N)sc4c3)ccc2o1 | < 1 | < 10 | < 1 | < 1 | < 10
CC(C)N1CCN(C2CN(c3cnc4ccc(-c5ccc6oc(N)nc6c5)cc4n3)C2)CC1 | < 0.1 | < 10 | < 10 | < 10 | > 10
CC(=O)N1CCN(C2CN(c3cnc4ccc(-c5ccc6oc(N)nc6c5)cc4n3)C2)CC1 | < 0.1 | < 1 | < 1 | < 10 | > 10
CCN(CC)C1CN(c2cnc3ccc(-c4ccc5oc(N)nc5c4)cc3n2)C1 | < 0.1 | < 10 | < 1 | < 10 | > 10
CC(=O)Nc1cn2cc(-c3ccc4oc(N)nc4c3)ccc2n1 | < 0.1 | < 0.1 | < 0.1 | < 1 | < 1
CN1CCN(c2cnc3ccc(-c4ccc5oc(N)nc5c4)cc3n2)CC1=O | < 0.1 | < 10 | < 1 | < 1 | < 10
COC(=O)N1CCC(n2ncc3c(N4CCOCC4)nc(-c4ccc5oc(N)nc5c4)nc32)CC1 | < 1 | > 10 | > 10 | < 10 | < 1
Cc1cc2oc(N)nc2cc1-c1ccc2ncc(N3CC(N4CCOCC4)C3)nc2c1 | < 10 | > 10 | > 10 | > 10 | > 10
Nc1nc2cc(-c3ccc4ncc(N5CC(N6CCNCC6)C5)nc4c3)ccc2o1 | < 0.1 | < 1 | < 1 | < 1 | > 10
CC(=O)Nc1ncc(-c2ccc3oc(N)nc3c2)s1 | < 10 | < 10 | < 10 | > 10 | < 10
